Experimental data as given in ChEMBL document CHEMBL1201862, “PubChem BioAssay data set” (2004).
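Five compound concentrations were applied to cells in 96-well plates for 48 hours; endpoints were derived by simple linear interpolation of the resulting dose-response curve. GI50: concentration for 50% inhibition of growth.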 Active and inactive are the calls of the source. No stated cut-off is given here; in the data, active = GI50 up to about 1.1 µM and inactive = higher.

How the values were obtained:
Assay in all cases: DTP human tumour cell line panel, 48 h
[1] = test system: Hs-578T
[2] = test system: UACC-62
[3] = test system: COLO 205
[4] = test system: SF-295
[5] = test system: TK-10
[6] = test system: UO-31
[7] = test system: SK-MEL-5
[8] = test system: SK-OV-3
[9] = test system: SNB-75
[10] = test system: HOP-92
[11] = test system: HCT-15
[12] = test system: SNB-19
[13] = test system: OVCAR-5
[14] = test system: HOP-62
[15] = test system: NCI/ADR-RES
[16] = test system: SF-268
[17] = test system: LOX IMVI
[18] = test system: T47D
[19] = test system: CAKI-1
[20] = test system: NCI-H226
[21] = test system: MCF7
[22] = test system: K562
[23] = test system: MDA-N
[24] = test system: PC-3
[25] = test system: NCI-H23
[26] = test system: 786-0
[27] = test system: OVCAR-3
[28] = test system: IGROV-1
[29] = test system: OVCAR-4
[30] = test system: MDA-MB-435
[31] = test system: UACC-257
[32] = test system: ACHN
[33] = test system: NCI-H460
[34] = test system: OVCAR-8
[35] = test system: SK-MEL-28
[36] = test system: SN12C
[37] = test system: U-251
[38] = test system: SF-539
[39] = test system: HCT-116
[40] = test system: A549
[41] = test system: DU-145
[42] = test system: A498
[43] = test system: Malme-3M
[44] = test system: SK-MEL-2
[45] = test system: BT-549
[46] = test system: M14
[47] = test system: NCI-H522
[48] = test system: KM12
[49] = test system: HT-29
[50] = test system: SW-620
[51] = test system: EKVX
[52] = test system: MDA-MB-231
[53] = test system: RPMI-8226
[54] = test system: RXF 393
[55] = test system: HCC 2998
[56] = test system: MOLT-4
[57] = test system: HL-60
[58] = test system: CCRF-CEM

With `Nc1nnnn1CCO` the GI50 [1] was > 100 µM (inactive), the GI50 [2] was > 100 µM (inactive) and the GI50 [3] was > 100 µM (inactive). For the same compound, the GI50 [4] was > 100 µM (inactive), the GI50 [5] was > 100 µM (inactive) and the GI50 [6] was > 100 µM (inactive). The GI50 [7] was > 100 µM (inactive), the GI50 [8] was > 100 µM (inactive) and the GI50 [9] was > 100 µM (inactive). The GI50 [10] was > 100 µM (inactive), the GI50 [11] was over 100 µM and the GI50 [12] was > 100 µM (inactive). For the same compound, the GI50 [13] was > 100 µM (inactive), the GI50 [14] was > 100 µM (inactive) and the GI50 [15] was > 100 µM (inactive). For the same compound, the GI50 [16] was > 100 µM (inactive), the GI50 [17] was > 100 µM (inactive) and the GI50 [18] was > 100 µM (inactive). For the same compound, the GI50 [19] was > 100 µM (inactive), the GI50 [20] was > 100 µM (inactive) and the GI50 [21] was > 100 µM (inactive). The GI50 [22] was > 100 µM (inactive), the GI50 [23] was > 100 µM (inactive) and the GI50 [24] was > 100 µM (inactive). The GI50 [25] was > 100 µM (inactive), the GI50 [26] was > 100 µM (inactive) and the GI50 [27] was > 100 µM (inactive). For the same compound, the GI50 [28] was > 100 µM (inactive), the GI50 [29] was > 100 µM (inactive) and the GI50 [30] was > 100 µM (inactive). The GI50 [31] was > 100 µM (inactive), the GI50 [32] was > 100 µM (inactive) and the GI50 [33] was > 100 µM (inactive). The GI50 [34] was > 100 µM (inactive), the GI50 [35] was > 100 µM (inactive) and the GI50 [36] was > 100 µM (inactive). For the same compound, the GI50 [37] was > 100 µM (inactive), the GI50 [38] was > 100 µM (inactive) and the GI50 [39] was > 100 µM (inactive). For the same compound, the GI50 [40] was > 100 µM (inactive), the GI50 [41] was > 100 µM (inactive) and the GI50 [42] was > 100 µM (inactive). The GI50 [43] was > 100 µM (inactive), the GI50 [44] was > 100 µM (inactive) and the GI50 [45] was > 100 µM (inactive). For the same compound, the GI50 [46] was > 100 µM (inactive), the GI50 [47] was > 100 µM (inactive) and the GI50 [48] was > 100 µM (inactive). For the same compound, the GI50 [49] was > 100 µM (inactive), the GI50 [50] was > 100 µM (inactive) and the GI50 [51] was > 100 µM (inactive). The GI50 [52] was > 100 µM (inactive), the GI50 [53] was > 100 µM (inactive) and the GI50 [54] was > 100 µM (inactive).
In the case of `O=C(c1ccc(Cl)cc1)N1N=C(c2ccc(Cl)cc2)CC1(O)c1cc(F)c(Cl)cc1Cl` (configuration not stated), the GI50 [1] is reported as 39 µM (inactive), the GI50 [2] is reported as 21.5 µM (inactive) and the GI50 [3] is reported as 18.4 µM (inactive). The GI50 [4] was 20.6 µM (inactive), the GI50 [55] was 15.5 µM (inactive) and the GI50 [5] was 52.7 µM (inactive). The GI50 [6] was 9.06 µM (inactive), the GI50 [7] was 68.2 µM (inactive) and the GI50 [8] was 62.4 µM (inactive). The GI50 [9] was 10 µM (inactive), the GI50 [10] was 11.6 µM (inactive) and the GI50 [11] was 15.5 µM. For the same compound, the GI50 [12] was 14.6 µM (inactive), the GI50 [13] was 28.2 µM (inactive) and the GI50 [14] was 32.1 µM (inactive). For the same compound, the GI50 [15] was 18.4 µM (inactive), the GI50 [16] was 47.4 µM (inactive) and the GI50 [17] was 15.2 µM (inactive). The GI50 [18] was 9.95 µM (inactive), the GI50 [19] was 13.8 µM (inactive) and the GI50 [20] was 50.6 µM (inactive). For the same compound, the GI50 [21] was 7.14 µM (inactive), the GI50 [22] was 7.24 µM (inactive) and the GI50 [23] was 13.6 µM (inactive). The GI50 [24] was 10.4 µM (inactive), the GI50 [56] was 9.25 µM (inactive) and the GI50 [25] was 12.2 µM (inactive). For the same compound, the GI50 [26] was 18.9 µM (inactive), the GI50 [27] was 21.8 µM (inactive) and the GI50 [57] was 21.2 µM (inactive). The GI50 [58] was 18.7 µM (inactive), the GI50 [28] was 17.9 µM (inactive) and the GI50 [29] was 12.8 µM (inactive). For the same compound, the GI50 [30] was 16.7 µM (inactive), the GI50 [31] was 25.7 µM (inactive) and the GI50 [32] was 21.3 µM (inactive). For the same compound, the GI50 [33] was 21.7 µM (inactive), the GI50 [34] was 21.3 µM (inactive) and the GI50 [35] was 44.3 µM (inactive). The GI50 [36] was 14.5 µM (inactive), the GI50 [37] was 15.5 µM (inactive) and the GI50 [38] was 69.3 µM (inactive). For the same compound, the GI50 [39] was 5.66 µM (inactive), the GI50 [40] was 19.6 µM (inactive) and the GI50 [41] was 27.3 µM (inactive). The GI50 [42] was 13.6 µM (inactive), the GI50 [43] was 30.6 µM (inactive) and the GI50 [44] was 17 µM (inactive). For the same compound, the GI50 [45] was 62.2 µM (inactive), the GI50 [46] was 28.7 µM (inactive) and the GI50 [47] was 12.9 µM (inactive). For the same compound, the GI50 [48] was 6.97 µM (inactive), the GI50 [49] was 8.95 µM (inactive) and the GI50 [50] was 17.4 µM (inactive). The GI50 [51] was 8.59 µM (inactive), the GI50 [52] was 34.2 µM (inactive) and the GI50 [53] was 8.22 µM (inactive). The GI50 [54] was 23.9 µM (inactive).
With `NC1C2C=CC(C2)C1C(=O)O` (configuration not stated) the GI50 [1] was > 100 µM (inactive), the GI50 [2] was > 100 µM (inactive) and the GI50 [3] was > 100 µM (inactive). For the same compound, the GI50 [4] was > 100 µM (inactive), the GI50 [5] was > 100 µM (inactive) and the GI50 [6] was > 100 µM (inactive). The GI50 [7] was > 100 µM (inactive), the GI50 [8] was > 100 µM (inactive) and the GI50 [9] was > 100 µM (inactive). For the same compound, the GI50 [10] was > 100 µM (inactive), the GI50 [11] was over 100 µM and the GI50 [12] was > 100 µM (inactive). The GI50 [13] was > 100 µM (inactive), the GI50 [14] was > 100 µM (inactive) and the GI50 [15] was > 100 µM (inactive). For the same compound, the GI50 [16] was > 100 µM (inactive), the GI50 [17] was > 100 µM (inactive) and the GI50 [18] was > 100 µM (inactive). For the same compound, the GI50 [19] was > 100 µM (inactive), the GI50 [20] was > 100 µM (inactive) and the GI50 [21] was > 100 µM (inactive). For the same compound, the GI50 [22] was > 100 µM (inactive), the GI50 [23] was > 100 µM (inactive) and the GI50 [24] was > 100 µM (inactive). For the same compound, the GI50 [56] was > 100 µM (inactive), the GI50 [25] was > 100 µM (inactive) and the GI50 [26] was > 100 µM (inactive). The GI50 [27] was > 100 µM (inactive), the GI50 [57] was > 100 µM (inactive) and the GI50 [58] was > 100 µM (inactive). The GI50 [28] was > 100 µM (inactive), the GI50 [29] was > 100 µM (inactive) and the GI50 [30] was > 100 µM (inactive). For the same compound, the GI50 [32] was > 100 µM (inactive), the GI50 [34] was > 100 µM (inactive) and the GI50 [35] was > 100 µM (inactive). The GI50 [36] was > 100 µM (inactive), the GI50 [37] was > 100 µM (inactive) and the GI50 [38] was 9.08 µM (inactive). For the same compound, the GI50 [39] was > 100 µM (inactive), the GI50 [40] was > 100 µM (inactive) and the GI50 [41] was > 100 µM (inactive). The GI50 [42] was > 100 µM (inactive), the GI50 [43] was > 100 µM (inactive) and the GI50 [44] was > 100 µM (inactive). The GI50 [45] was > 100 µM (inactive), the GI50 [46] was > 100 µM (inactive) and the GI50 [47] was > 100 µM (inactive). For the same compound, the GI50 [48] was > 100 µM (inactive), the GI50 [49] was > 100 µM (inactive) and the GI50 [50] was > 100 µM (inactive). For the same compound, the GI50 [51] was > 100 µM (inactive), the GI50 [52] was > 100 µM (inactive) and the GI50 [53] was > 100 µM (inactive). The GI50 [54] was > 100 µM (inactive).
